Source: PMC5049785, “Characterization of Novel Antimalarial Compound ACT-451840: Preclinical Assessment of Activity and Dose–Efficacy Modeling” (PLoS Medicine, 2016)

Tests used:
[1] = test system: P. falciparum K1 (Thailand); experiment: [3H]-hypoxanthine incorporation assay, K1; type: cell-based, Plasmodium falciparum; conditions: read-out: 50% inhibitory concentration (IC50); K1, resistance CQ, SUL, PYR, CYC; mean ± SD
[2] = test system: P. berghei; experiment: In vitro (ex vivo) activity against P. berghei, [3H]-hypoxanthine incorporation; type: cell-based, Plasmodium berghei; conditions: 16 h exposure + 8 h incorporation
Protocol: In vitro (ex vivo) activity against the mouse malaria parasite P. berghei was measured at the Swiss TPH as described elsewhere, with the following modifications: heparinised blood of P. berghei infected and uninfected control female NMRI mice (final hematocrit of 2.5%) was used and exposed to compounds for 16 h followed by 8 h of [^3H]-hypoxanthine incorporation.

[3] = Pharmacokinetic study in healthy mice; type: in vivo, female NMRI mice
Protocol: Female NMRI mice were purchased from Harlan (Horst, The Netherlands) by Actelion Pharmaceuticals. ACT-451840 was formulated as a solution in corn oil and dosed via oral gavage at 10, 100, and 300 mg/kg. Serial blood samples were collected at 0.5, 2, 4, and 8 h after dosing from two mice and after 1, 3, 6, and 24 h from two other mice, creating composite PK profiles from, in total, four mice per dose. Blood samples were analyzed using liquid chromatography coupled to tandem mass spectrometry (LC-MS/MS) after protein precipitation. PK parameters were estimated using non-compartmental analysis from the composite profiles.

[4] = Blood concentrations in P. berghei infected mice; type: in vivo; conditions: 1, 4, 24 h after first dose of triple-dose regimen
Protocol: To assess the PK parameters in infected mice, blood samples were taken at 1, 4, and 24 h after the first dose of a triple-dose regimen in the P. berghei efficacy studies. The employed doses were 15 or 30 mg/kg bis in die (b.i.d.), and 30, 50, 100, 300 mg/kg quaque die (q.d.) (n = 3/timepoint and dose).

[5] = Reverse mutation test in vitro
[6] = Chromosome aberration study in vitro
[7] = General oral toxicity study up to 4 wk, rats; type: in vivo
[8] = Effect of formulation and food on oral pharmacokinetics in dogs; type: in vivo; conditions: for AUC0-∞ geometric mean / Cmax geometric mean: dogs
Protocol: The fumarate salt of ACT-451840 was administered orally at 10 mg/kg to fasted and fed male dogs (100 mg/dog, n = 4) as a suspension in an aqueous vehicle containing 0.5% (w/w) methylcellulose.

[9] = single oral 10 mg/kg in corn oil
[10] = single oral 100 mg/kg in corn oil
[11] = single oral 300 mg/kg in corn oil
[12] = 100 mg oral, aqueous suspension, fasted
[13] = fumarate salt 100 mg oral, aqueous suspension containing 0.5% methylcellulose, fasted
[14] = fumarate salt 100 mg oral, aqueous suspension containing 0.5% methylcellulose, fed
[15] = methylcellulose suspension, higher in fed

## CC(=O)N1CCN(c2ccc(CN(C(=O)/C=C/c3ccc(C(C)(C)C)cc3)[C@@H](Cc3ccccc3)C(=O)N3CCN(Cc4ccc(C#N)cc4)CC3)cc2)CC1 [ACT-451840]
[1]
  IC50: 0.3 nM
[2]
  IC50: 13.5 nM
[3]; [9]
  AUC (ng/mL*h): 1,780 ± 18%
  Cmax (ng/mL): 415 ± 20%
  Tmax: 2.5 h
[3]; [10]
  AUC (ng/mL*h): 32,900 ± 36%
  Cmax (ng/mL): 3,910 ± 20%
  Tmax: 6 h
[3]; [11]
  AUC (ng/mL*h): 60,900 ± 33%
  Cmax (ng/mL): 7,010 ± 32%
  Tmax: 7 h
[4]
  blood concentration in infected mice compared to healthy mice: No significant difference
[5]
  genotoxicity, reverse mutation test: not genotoxic
[6]
  genotoxicity, chromosome aberration study: not genotoxic
[7]; oral
  no-observed-adverse-effect level: 100 mg/kg/day
[7]; oral up to 2,000 mg/kg/day
  local gastrointestinal toxicity: no evidence of local gastrointestinal toxicity
[8]; [12]
  AUC0-∞ geometric mean: 120 ng·h/mL
  Cmax geometric mean: 26.2 ng/mL
[8]; [13]
  AUC0-∞ geometric mean: 304 ng·h/mL
  Cmax geometric mean: 46.2 ng/mL
[8]; [14]
  AUC0-∞ geometric mean: 1720 ng·h/mL
  Cmax geometric mean: 171 ng/mL
[8]; [15]
  AUC fed dogs versus fasted dogs: 5.7 fold
  Cmax fed dogs versus fasted dogs: 3.7 fold
